Reference: patent US11591365B2, “BCL9 peptides and variants thereof” (WntRx Pharmaceuticals Inc., priority 2017, dated 2023)
*1 amine or outer side, *2 acyl side, *3 side chain or, on linkers, in order; H or OH if unused. Where a SMILES comes first, the peptide text is derived from it. Bridges are numbered along the chain shown (N, C = ends). [ ]: non-standard residue; d: D form. 2Nal = N[C@@H](Cc1ccc2ccccc2c1)C(=O)O; X1 = NC(=O)CCCCN(CC(=O)[*:2])[*:1]; NMeR = CN[C@@H](CCCNC(=N)N)C(=O)O; hArg = N=C(N)NCCCC[C@H](N)C(=O)O; NMeE = CN[C@@H](CCC(=O)O)C(=O)O; NMeQ = CN[C@@H](CCC(N)=O)C(=O)O; Cha = N[C@@H](CC1CCCCC1)C(=O)O; Cba = N[C@@H](CC1CCC1)C(=O)O; S5 = C=CCCC[C@](C)(N)C(=O)O

Test system: Colo320DM
Test: Colo320DM cell viability
Assay type: cell-based, human
Description: In some embodiments, a polypeptide described herein inhibits binding of BLC9 to β-catenin when assessed in a cell-viability assay. In some embodiments, the cell-viability assay is a CellTiterGlo luminescent assay, wherein the viability of cells is quantitatively measured. Various cell lines, transformed cell lines or primary cells derived from a healthy subject or subject suffering from a disease can be used in this assay.

Row | IC50 [µM] | SMILES
1 | 4.76 | CC[C@H](C)[C@@H]1NC(=O)[C@@](C)(NC(=O)[C@H](CCCNC(=N)N)NC(=O)[C@H](CC(C)C)NC(=O)[C@@H](NC(=O)[C@H](CCC(N)=O)NC(=O)[C@H](CC(C)C)NC(=O)[C@H](CO)NC(=O)[C@H](CCCCNC(=N)N)NC(=O)[C@H](CCC(N)=O)NC(=O)[C@H](CCCNC(=N)N)NC(=O)[C@H](Cc2c[nH]cn2)NC(C)=O)[C@@H](C)O)CCCC=CCCC[C@@](C)(C(=O)N[C@@H](CC2CCC2)C(=O)N[C@@H](Cc2ccc3ccccc3c2)C(N)=O)NC(=O)[C@H](CCCNC(=N)N)NC(=O)[C@H](CCC(N)=O)NC1=O [SEQ ID NO: 167, HRQ(homoR)SLQTLRXIQRX(CBA)(2-Nal)] (Ac-HRQ[hArg]SLQTLR[S5]IQR[S5][Cba][2Nal]-NH2; staple 11-15)
2 | 1.83 | CC[C@H](C)[C@@H]1NC(=O)[C@@](C)(NC(=O)[C@H](CCCNC(=N)N)NC(=O)[C@H](CC(C)C)NC(=O)[C@]2(C)CCCC=CCCC[C@](C)(NC(=O)[C@H](CCCNC(=N)N)NC(=O)[C@H](CCC(N)=O)NC(=O)[C@H](CCCNC(=N)N)NC(=O)[C@H](Cc3c[nH]cn3)NC(C)=O)C(=O)N[C@@H](CC(C)C)C(=O)N[C@@H](CCC(N)=O)C(=O)N2)CCCC=CCCC[C@@](C)(C(=O)N[C@@H](CC2CCC2)C(=O)N[C@@H](Cc2ccc3ccccc3c2)C(N)=O)NC(=O)[C@H](CCCNC(=N)N)NC(=O)[C@H](CCC(N)=O)NC1=O [SEQ ID NO: 90, HRQRXLQXLRZIQRZ(CBA)(2-Nal)] (Ac-HRQR[S5]LQ[S5]LR[S5]IQR[S5][Cba][2Nal]-NH2; staple 5-8, 11-15)
3 | 4.17 | CC[C@H](C)[C@@H]1NC(=O)[C@@](C)(NC(=O)[C@H](CCCNC(=N)N)NC(=O)[C@H](CC(C)C)NC(=O)[C@@H](NC(=O)[C@H](CCC(N)=O)NC(=O)[C@H](CC(C)C)NC(=O)[C@H](CO)NC(=O)[C@H](CCCNC(=N)N)NC(=O)[C@H](CCC(N)=O)NC(=O)[C@H](CCCNC(=N)N)N(C)C(=O)[C@H](Cc2c[nH]cn2)NC(C)=O)[C@@H](C)O)CCCC=CCCC[C@@](C)(C(=O)N[C@@H](CC2CCC2)C(=O)N[C@@H](Cc2ccc3ccccc3c2)C(N)=O)NC(=O)[C@H](CCCNC(=N)N)NC(=O)[C@H](CCC(N)=O)NC1=O (single isomer, unassigned) [SEQ ID NO: 166, H(N-methylR)QRSLQTLRXIQRX(CBA)(2-Nal)]
4 | > 5 | CC[C@H](C)[C@@H]1NC(=O)[C@@](C)(NC(=O)[C@H](CCCNC(=N)N)NC(=O)[C@H](CC(C)C)NC(=O)[C@]2(C)CCCC=CCCC[C@](C)(NC(=O)[C@H](CCC(=O)O)NC(=O)[C@H](CCCNC(=N)N)NC(=O)[C@@H](N)Cc3c[nH]cn3)C(=O)N[C@@H](CO)C(=O)N[C@@H](CC(C)C)C(=O)N[C@@H](CCC(N)=O)C(=O)N2)CCCC=CCCC[C@@](C)(C(=O)N[C@@H](CC2CCC2)C(=O)N[C@@H](Cc2ccc3ccccc3c2)C(=O)O)NC(=O)[C@H](CCCNC(=N)N)NC(=O)[C@H](CCC(N)=O)NC1=O [SEQ ID NO: 82, HREXSLQXLRZIQRZ(CBA)(2-Nal)] (H-HRE[S5]SLQ[S5]LR[S5]IQR[S5][Cba][2Nal]-OH; staple 4-8, 11-15)
5 | 4.68 | CC[C@H](C)[C@@H]1NC(=O)[C@@](C)(NC(=O)[C@H](CCCNC(=N)N)NC(=O)[C@H](CC(C)C)NC(=O)[C@@H](NC(=O)[C@H](CCC(N)=O)NC(=O)[C@H](CC(C)C)NC(=O)[C@H](CO)NC(=O)[C@H](CCCNC(=N)N)NC(=O)[C@H](CCC(N)=O)NC(=O)[C@H](CCCNC(=N)N)NC(=O)[C@H](Cc2c[nH]cn2)NC(C)=O)[C@@H](C)O)CCCC=CCCC[C@@](C)(C(=O)N[C@@H](Cc2ccc(Cl)cc2)C(=O)N[C@@H](Cc2ccc3ccccc3c2)C(N)=O)NC(=O)[C@H](CCCNC(=N)N)NC(=O)[C@H](CCC(N)=O)NC1=O (single isomer, unassigned) [SEQ ID NO: 179, HRQRSLQTLRXIQRX(Phe-4-Cl)(2-Nal)]
6 | 5.89 | CC[C@H](C)[C@@H]1NC(=O)[C@@](C)(NC(=O)[C@H](CCCNC(=N)N)NC(=O)[C@H](CC(C)C)NC(=O)[C@@H](NC(=O)[C@H](CCC(N)=O)NC(=O)[C@H](CC(C)C)NC(=O)[C@H](CO)NC(=O)[C@H](CCCNC(=N)N)NC(=O)[C@H](CCC(N)=O)NC(=O)[C@H](CCCNC(=N)N)NC(=O)[C@H](Cc2c[nH]cn2)NC(C)=O)[C@@H](C)O)CCCC=CCCC[C@@](C)(C(=O)N[C@@H](CC2CCCCC2)C(=O)N[C@@H](Cc2ccc3ccccc3c2)C(N)=O)NC(=O)[C@H](CCCNC(=N)N)N(C)C(=O)[C@H](CCC(N)=O)NC1=O [SEQ ID NO: 190, HRQRSLQTLRXIQ(N-MeArg)X(Cha)(2-Nal)] (Ac-HRQRSLQTLR[S5]IQ[NMeR][S5][Cha][2Nal]-NH2; staple 11-15)
7 | 4.98 | CC[C@H](C)[C@@H]1NC(=O)[C@@](C)(NC(=O)[C@H](CCCNC(=N)N)NC(=O)[C@H](CC(C)C)NC(=O)[C@@H](NC(=O)CN(CCCCC(N)=O)C(=O)[C@H](CC(C)C)NC(=O)[C@H](CO)NC(=O)[C@H](CCCNC(=N)N)NC(=O)[C@H](CCC(N)=O)NC(=O)[C@H](CCCNC(=N)N)NC(=O)[C@H](Cc2c[nH]cn2)NC(C)=O)[C@@H](C)O)CCCC=CCCC[C@@](C)(C(=O)N[C@@H](CC2CCC2)C(=O)N[C@@H](Cc2ccc3ccccc3c2)C(N)=O)NC(=O)[C@H](CCCNC(=N)N)NC(=O)[C@H](CCC(N)=O)NC1=O [SEQ ID NO: 169, HRQRSL(peptoid-Q)TLRXIQRX(CBA)(2-Nal)] (Ac-HRQRSL[X1]TLR[S5]IQR[S5][Cba][2Nal]-NH2; staple 11-15)
8 | 2.56 | CC[C@H](C)[C@@H]1NC(=O)[C@@](C)(NC(=O)[C@H](CCCNC(=N)N)NC(=O)[C@H](CC(C)C)NC(=O)[C@@H](NC(=O)[C@H](CCC(N)=O)N(C)C(=O)[C@H](CC(C)C)NC(=O)[C@H](CO)NC(=O)[C@H](CCCNC(=N)N)NC(=O)[C@H](CCC(N)=O)NC(=O)[C@H](CCCNC(=N)N)NC(=O)[C@H](Cc2c[nH]cn2)NC(C)=O)[C@@H](C)O)CCCC=CCCC[C@@](C)(C(=O)N[C@@H](CC2CCC2)C(=O)N[C@@H](Cc2ccc3ccccc3c2)C(N)=O)NC(=O)[C@H](CCCNC(=N)N)NC(=O)[C@H](CCC(N)=O)NC1=O [SEQ ID NO: 153, HRQRSL(N-methylQ)TLRXIQRX(CBA)(2-Nal)] (Ac-HRQRSL[NMeQ]TLR[S5]IQR[S5][Cba][2Nal]-NH2; staple 11-15; N-terminus and C-terminus assumed)
9 | > 5 | CC[C@H](C)[C@@H]1NC(=O)[C@@](C)(NC(=O)[C@H](CCCNC(=N)N)NC(=O)[C@H](CC(C)C)NC(=O)[C@@H](NC(=O)[C@H](CCC(=O)O)NC(=O)[C@H](CC(C)C)NC(C)=O)[C@@H](C)O)CCCC=CCCC[C@@](C)(C(=O)N[C@@H](CC2CCC2)C(=O)N[C@@H](Cc2ccc3ccccc3c2)C(N)=O)NC(=O)[C@H](CCCNC(=N)N)NC(=O)[C@H](CCC(N)=O)NC1=O [SEQ ID NO: 109, LETLRXIQRX(CBA)(2-Nal)] (Ac-LETLR[S5]IQR[S5][Cba][2Nal]-NH2; staple 6-10)
10 | 2.48 | CC[C@H](C)[C@@H]1NC(=O)[C@@](C)(NC(=O)[C@H](CCCNC(=N)N)NC(=O)[C@H](CC(C)C)NC(=O)[C@@H](NC(=O)[C@H](CCC(N)=O)NC(=O)[C@H](CC(C)C)NC(=O)[C@@H](NC(=O)[C@H](CCCNC(=N)N)NC(=O)[C@H](CCC(N)=O)NC(=O)[C@H](CCCNC(=N)N)NC(=O)[C@H](Cc2c[nH]cn2)NC(C)=O)[C@@H](C)O)[C@@H](C)O)CCCC=CCCC[C@@](C)(C(=O)N[C@@H](CC2CCC2)C(=O)N[C@@H](Cc2ccc3ccccc3c2)C(N)=O)NC(=O)[C@H](CCCNC(=N)N)NC(=O)[C@H](CCC(N)=O)NC1=O [SEQ ID NO: 159, HRQRTLQTLRXIQRX(CBA)(2-Nal)] (Ac-HRQRTLQTLR[S5]IQR[S5][Cba][2Nal]-NH2; staple 11-15)
11 | 1.9 | CC[C@H](C)[C@@H]1NC(=O)[C@@](C)(NC(=O)[C@H](CCCNC(=N)N)NC(=O)[C@H](CC(C)C)NC(=O)[C@@H](NC(=O)[C@H](CCC(N)=O)NC(=O)[C@H](CC(C)C)NC(=O)[C@H](CO)NC(=O)[C@H](CCCNC(=N)N)NC(=O)[C@H](CCC(=O)O)NC(=O)[C@H](CCCNC(=N)N)NC(=O)[C@H](Cc2c[nH]cn2)NC(=O)[C@H](CCC(=O)O)NC(C)=O)[C@@H](C)O)CCCC=CCCC[C@@](C)(C(=O)N[C@@H](CC2CCC2)C(=O)N[C@@H](Cc2ccc3ccccc3c2)C(N)=O)NC(=O)[C@H](CCCNC(=N)N)NC(=O)[C@H](CCC(N)=O)NC1=O [SEQ ID NO: 9, EHRERSLQTLRXIQRX(CBA)(2-Nal)] (Ac-EHRERSLQTLR[S5]IQR[S5][Cba][2Nal]-NH2; staple 12-16)
12 | 3.1 | CC[C@H](C)[C@@H]1NC(=O)[C@@](C)(NC(=O)[C@H](CCCNC(=N)N)NC(=O)[C@H](CC(C)C)NC(=O)[C@@H](NC(=O)[C@H](CCC(N)=O)NC(=O)[C@H](CC(C)C)NC(=O)[C@H](CO)NC(=O)[C@H](CCCNC(=N)N)NC(=O)[C@H](CCC(=O)O)N(C)C(=O)[C@H](CCCNC(=N)N)NC(=O)[C@H](Cc2c[nH]cn2)NC(C)=O)[C@@H](C)O)CCCC=CCCC[C@@](C)(C(=O)N[C@@H](CC2CCC2)C(=O)N[C@@H](Cc2ccc3ccccc3c2)C(N)=O)NC(=O)[C@H](CCCNC(=N)N)NC(=O)[C@H](CCC(N)=O)NC1=O [SEQ ID NO: 151, HR(N-methylE)RSLQTLRXIQRX(CBA)(2-Nal)] (Ac-HR[NMeE]RSLQTLR[S5]IQR[S5][Cba][2Nal]-NH2; staple 11-15)
13 | 9.1 | CC[C@H](C)[C@@H]1NC(=O)[C@@](C)(NC(=O)[C@H](CCCNC(=N)N)NC(=O)[C@H](CC(C)C)NC(=O)[C@@H](NC(=O)[C@H](CCC(N)=O)NC(=O)[C@H](CC(C)C)NC(=O)[C@H](CO)NC(=O)[C@H](CCCNC(=N)N)NC(=O)[C@H](CCC(=O)O)NC(=O)[C@H](CCCNC(=N)N)NC(=O)[C@H](Cc2c[nH]cn2)NC(=O)[C@H](CCC(=O)O)NC(C)=O)[C@@H](C)O)CCCC=CCCC[C@@](C)(C(=O)N[C@@H](CC(C)C)C(=O)N[C@@H](Cc2ccc3ccccc3c2)C(N)=O)NC(=O)[C@H](CCCNC(=N)N)NC(=O)[C@H](CCC(N)=O)NC1=O [SEQ ID NO: 7, EHRERSLQTLRXIQRXL(2-Nal)] (Ac-EHRERSLQTLR[S5]IQR[S5]L[2Nal]-NH2; staple 12-16)
